Measured values from patent publication US8642593B2, “2,4-pyrimidinediamine compounds and prodrugs and their uses” (Rigel Pharmaceuticals, Inc., priority 2009, dated 2014).
Read-outs that look alike come from different tables or passages of the source.

Experiments:
[1] = system: mast cell activation induced by FcγR cross-linking (CHMC cells); experiment: LD Tryptase CHMC: tryptase release assay; format: cell-based, Human; conditions: for IC50: Mast cell; for potency compared with the control, whole cell assay: vs control compound
Experimental: Compounds are assayed for inhibition of mast cell activation induced by FcγR cross-linking by measuring the activity of tryptase released upon degranulation as follows:
Human mast cells are cultured and differentiated from CD38-negative progenitor cell as described in U.S. Patent Publication No. 2005/0234049, which is hereby incorporated herein by reference in its entirety. For example, 65 μL of various concentrations of the test compound are prepared in MT (137 mM NaCl, 2.7 mM KCl, 1.8 mM CaCl2, 1.0 mM MgCl2, 5.6 mM Glucose, 20 mM Hepes (pH 7.4), 0.1% Bovine Serum Albumin, (Sigma, #A4503)) containing 2% MeOH and 1% DMSO, or control buffer are added to duplicate 96-well V-bottom plates. Pelleted and re-suspended (in warm MT) CHMC cells (65 μL) are added to each 96-well plate, mixed and incubated for 1 hour at 37° C. […] MT (25 μL) is added to control wells. After a 60-minute incubation at 37° C., cells and cell debris were pelleted by centrifugation at 1000 rpm for 10 min and tryptase and leukotriene C4 levels are measured.
To measure tryptase levels, 25 μL of supernatant from each well is transferred to a fresh 96-well black bottom plate, to which 100 μL of fresh tryptase substrate solution [(Z-Ala-Lys-Arg-AMC2TFA; Enzyme Systems Products, #AMC-246)]1:2000 in tryptase assay buffer [0.1M Hepes (pH 7.5), 10% w/v Glycerol, 10 μM Heparin (Sigma H-4898) 0.01% NaN3] is added. After 30 minutes incubation at room temperature, the optical density of the plates is measured at 355 nm/460 nm on a spectrophotometric plate reader.
Compounds of the disclosure were assayed for their ability to inhibit mast cell activation induced by FcγR cross-linking by measuring the activity of tryptase released upon degranulation.

Syk kinase = target: T1, Syk kinase (Homo sapiens, UniProt P43405); experiment: Fluorescence Polarization Syk kinase assay; format: biochemical; conditions: for IC50: Table 2, unit inferred, read-out: FP-based Biochem Syk; for potency compared with the control, biochemical assay: vs control compound
T1 construct: purchased Millipore #14-314
Experimental: Compounds are tested for the ability to inhibit Syk kinase catalyzed phosphorylation of a peptide substrate in a biochemical fluorescence polarization assay with isolated Syk kinase.
Test compound stock solutions (10 mM) containing are serially diluted in DMSO starting from 2.5 mM and then further diluted to desired concentration of 50 μM (5×) to yield 2% DMSO concentration in kinase buffer (20 mM HEPES, pH 7.4, 5 mM MgCl2, 2 mM MnCl2, 1 mM DTT, 0.1 mg/mL acetylated Bovine Gamma Globulin). The assay is carried out in a black 96 well low volume plate (Molecular Devices, #42-000-0117) by transferring compound in 2% DMSO (0.4% DMSO final) pre-mixed with ATP/substrate (TK2 peptide) in kinase buffer at room temperature. Syk kinase (Millipore, #14-314) is added to a final reaction volume of 20 μL, and the reaction is incubated for 30 minutes at room temperature. […] The reaction is stopped by addition of 20 μL of PTK quench mix containing EDTA (10 mM final)/anti-phosphotyrosine antibody (1× final)/fluorescent phosphopeptide tracer (0.5× final) diluted in FP dilution buffer to stop the reaction to a total volume of 40 μL according to the manufacturer's instructions (Invitrogen). The plate is incubated in the dark for additional 30 minutes at room temperature and then read on a Polarion fluorescence polarization plate reader (Tecan). Data are converted to amount of phosphopeptide present using a calibration curve generated by competition with the phosphopeptide competitor provided in the Tyrosine Kinase Assay Kit, Green (Invitrogen, #P2837).

[2] = Homo sapiens, Table 2, unit inferred, read-out: LD Tryptase CHMC
[3] = Homo sapiens, read-out: IC50 value (tryptase assay)
[4] = human mast cells, anti-IgG stimulation, read-out: IC50 (LD Tryptase CHMC)

| IC50 [1, 2] [µM] | IC50 [1, 3] [µM] | IC50 [1, 4] [µM] | IC50 (Syk kinase) [µM] | potency compared with the control, biochemical assay (Syk kinase) | SMILES | potency compared with the control, whole cell assay [1] |
| --- | --- | --- | --- | --- | --- | --- |
| 0.09 | < 0.1 | 0.09 | 0.04 | somewhat less potent than the control | CC1(C)Oc2ccc(Nc3nc(Nc4ccc(N5CCOCC5)nc4)ncc3F)nc2NC1=O [Compound 1, N4-(2,2-Dimethyl-3-oxo-4H-5-pyrido[1,4]oxazin-6-yl)-5-fluoro-N2-[6-morpholinopyridin-3-yl]-2,4-pyrimidinediamine] | somewhat less potent than the control |
| 0.08 | < 0.1 | 0.08 | 0.08 | somewhat less potent than the control | CC1(C)Oc2ccc(Nc3nc(Nc4ccc(N5CCOCC5)cc4)ncc3F)nc2NC1=O [Compound 3, N4-(2,2-Dimethyl-3-oxo-4H-5-pyrido[1,4]oxazin-6-yl)-5-fluoro-N2-(4-morpholinophenyl)-2,4-pyrimidinediamine] | somewhat less potent than the control |
